Experimental data as given in patent US4282244A, “Optical isomers of 4-amino-N-(1-cyclohexyl-3-pyrrolidinyl)-N-methylbenzamide” (A. H. Robins Company, Inc., priority 1980, dated 1981).
Structures can show the parent of a compound that is named as a salt.

Legend:
mouse = experiment: acute toxicity (LD50), mouse; type: in vivo; details: fumarate salt, expressed as free base
Description: (§1) The acute toxicities of the ±-racemate, the (+)-isomer and the (-)-isomer were conducted with the fumarate salts and probit analysis (Finney, D. J., Statistical Methods in Biological Assay, Hafner Pub. Co., N.Y., 2nd. Ed., 1964) was employed for the statistical treatment of the mortality data.

rat = experiment: acute toxicity (LD50), rat; type: in vivo; details: fumarate salt, expressed as free base
Description: as §1

[1] = cataleptic effects (Tedeschi et al.); type: in vivo, rat; details: in vivo, rat, fumarate salt, expressed as free base
Text: The procedure used for determing cataleptic effects of the fumarate salts was based on that of Tedeschi et al., Arch. Int. Pharmacodyn.

[2] = tested on: Chlorpromazine-Induced Catalepsy; experiment: Effects on Chlorpromazine-Induced Catalepsy; type: in vivo, rat; details: then (+)-isomer 25 mg/kg IP after one hour
Description: (§2) (+)-4-Amino-N-(1-cyclohexyl-3-pyrrolidinyl)-N-methylbenzamide is useful in reducing the cataleptic side effects of known therapeutically effective drugs such as chlorpromazine [2-chloro-10-(3-dimethylaminopropyl)phenothiazine] and metoclopramide (N-diethylaminoethyl 2-methoxy-4-amino-5-chlorophenylcarboxamide). The effectiveness is shown in Tables IV and V. In each test the rat was administered a 100% effective cataleptic dose of the test drug followed one hour later by an effective dose of (+)-4-amino-N-(1-cyclohexyl-3-pyrrolidinyl)-N-methylbenzamide.

[3] = tested on: Metoclopramide-Induced Catalepsy; experiment: Effects on Metoclopramide-Induced Catalepsy; type: in vivo, rat; details: Metoclopramide 40 mg/kg IP
Description: as §2

CN(C(=O)c1ccc(N)cc1)C1CCN(C2CCCCC2)C1 (single isomer, unassigned; (+)) [(+)-isomer, (+)-4-Amino-N-(1-cyclohexyl-3-pyrrolidinyl)-N-methyl benzamide Fumarate]
67%: Percent of Rats Cataleptic ([2]; Chlorpromazine 4 mg/kg IP, 6.0 h after initial treatment)
267 (233-313) mg/kg: LD50 (95% Confidence Limits) (mouse; P.O.)
0%: Percent of Rats Cataleptic ([2]; saline 10 ml/kg IP, 0.5 h after initial treatment) | Percent of Rats Cataleptic ([2]; saline 10 ml/kg IP, 1.0 h after initial treatment) | Percent of Rats Cataleptic ([2]; saline 10 ml/kg IP, 1.5 h after initial treatment) | Percent of Rats Cataleptic ([2]; saline 10 ml/kg IP, 2.0 h after initial treatment) | Percent of Rats Cataleptic ([2]; saline 10 ml/kg IP, 3.0 h after initial treatment) | Percent of Rats Cataleptic ([2]; saline 10 ml/kg IP, 6.0 h after initial treatment)
126 (115-139) mg/kg: LD50 (95% Confidence Limits) (mouse; I.P.)
100%: Percent of Rats Cataleptic ([2]; Chlorpromazine 4 mg/kg IP, 0.5 h after initial treatment) | Percent of Rats Cataleptic ([2]; Chlorpromazine 4 mg/kg IP, 1.0 h after initial treatment) | Percent of Rats Cataleptic ([2]; Chlorpromazine 4 mg/kg IP, 5.0 h after initial treatment) | Percent of Rats Cataleptic ([3]; then (+)-isomer 12.5 mg/kg IP after one hour, 0.5 h after initial treatment) | Percent of Rats Cataleptic ([3]; then (+)-isomer 12.5 mg/kg IP after one hour, 1.0 h after initial treatment) | Percent of Rats Cataleptic ([3]; then (+)-isomer 12.5 mg/kg IP after one hour, 1.5 h after initial treatment) | Percent of Rats Cataleptic ([3]; then (+)-isomer 12.5 mg/kg IP after one hour, 4.0 h after initial treatment) | Percent of Rats Cataleptic ([3]; then (+)-isomer 12.5 mg/kg IP after one hour, 5.0 h after initial treatment) | Percent of Rats Cataleptic ([3]; then (+)-isomer 12.5 mg/kg IP after one hour, 6.0 h after initial treatment) | Percent of Rats Cataleptic ([3]; then (+)-isomer 12.5 mg/kg IP after one hour, 7.0 h after initial treatment) | Percent of Rats Cataleptic ([3]; then (+)-isomer 25 mg/kg IP after one hour, 0.5 h after initial treatment) | Percent of Rats Cataleptic ([3]; then (+)-isomer 25 mg/kg IP after one hour, 1.0 h after initial treatment) | Percent of Rats Cataleptic ([3]; then (+)-isomer 25 mg/kg IP after one hour, 1.5 h after initial treatment) | Percent of Rats Cataleptic ([3]; then (+)-isomer 50 mg/kg IP after one hour, 0.5 h after initial treatment) | Percent of Rats Cataleptic ([3]; then (+)-isomer 50 mg/kg IP after one hour, 1.0 h after initial treatment)
38%: Percent of Rats Cataleptic ([3]; then (+)-isomer 25 mg/kg IP after one hour, 3.0 h after initial treatment) | Percent of Rats Cataleptic ([3]; then (+)-isomer 40 mg/kg IP after one hour, 3.0 h after initial treatment) | Percent of Rats Cataleptic ([3]; then (+)-isomer 40 mg/kg IP after one hour, 4.0 h after initial treatment)
499 (322-593) mg/kg: LD50 (95% Confidence Limits) (rat; P.O.)
100 mg/kg: NOAEL ([1]; IP)
88%: Percent of Rats Cataleptic ([3]; then (+)-isomer 12.5 mg/kg IP after one hour, 2.0 h after initial treatment) | Percent of Rats Cataleptic ([3]; then (+)-isomer 12.5 mg/kg IP after one hour, 3.0 h after initial treatment) | Percent of Rats Cataleptic ([3]; then (+)-isomer 25 mg/kg IP after one hour, 5.0 h after initial treatment) | Percent of Rats Cataleptic ([3]; then (+)-isomer 25 mg/kg IP after one hour, 6.0 h after initial treatment) | Percent of Rats Cataleptic ([3]; then (+)-isomer 40 mg/kg IP after one hour, 0.5 h after initial treatment) | Percent of Rats Cataleptic ([3]; then (+)-isomer 40 mg/kg IP after one hour, 1.0 h after initial treatment) | Percent of Rats Cataleptic ([3]; then (+)-isomer 40 mg/kg IP after one hour, 5.0 h after initial treatment) | Percent of Rats Cataleptic ([3]; then (+)-isomer 40 mg/kg IP after one hour, 6.0 h after initial treatment) | Percent of Rats Cataleptic ([3]; then (+)-isomer 40 mg/kg IP after one hour, 7.0 h after initial treatment) | Percent of Rats Cataleptic ([3]; then (+)-isomer 50 mg/kg IP after one hour, 6.0 h after initial treatment)
200 mg/kg: NOAEL ([1]; PO)
75%: Percent of Rats Cataleptic ([3]; then (+)-isomer 25 mg/kg IP after one hour, 2.0 h after initial treatment) | Percent of Rats Cataleptic ([3]; then (+)-isomer 25 mg/kg IP after one hour, 4.0 h after initial treatment) | Percent of Rats Cataleptic ([3]; then (+)-isomer 50 mg/kg IP after one hour, 5.0 h after initial treatment) | Percent of Rats Cataleptic ([3]; then (+)-isomer 50 mg/kg IP after one hour, 7.0 h after initial treatment)
147 (134-222) mg/kg: LD50 (95% Confidence Limits) (rat; I.P.)
13%: Percent of Rats Cataleptic ([3]; then (+)-isomer 40 mg/kg IP after one hour, 2.0 h after initial treatment) | Percent of Rats Cataleptic ([3]; then (+)-isomer 50 mg/kg IP after one hour, 1.5 h after initial treatment) | Percent of Rats Cataleptic ([3]; then (+)-isomer 50 mg/kg IP after one hour, 2.0 h after initial treatment)
50%: Percent of Rats Cataleptic ([2]; Chlorpromazine 4 mg/kg IP, 1.5 h after initial treatment) | Percent of Rats Cataleptic ([2]; Chlorpromazine 4 mg/kg IP, 4.0 h after initial treatment)
33%: Percent of Rats Cataleptic ([2]; Chlorpromazine 4 mg/kg IP, 2.0 h after initial treatment) | Percent of Rats Cataleptic ([2]; Chlorpromazine 4 mg/kg IP, 3.0 h after initial treatment)
17%: Percent of Rats Cataleptic ([2]; saline 10 ml/kg IP, 4.0 h after initial treatment) | Percent of Rats Cataleptic ([2]; saline 10 ml/kg IP, 5.0 h after initial treatment)
25%: Percent of Rats Cataleptic ([3]; then (+)-isomer 40 mg/kg IP after one hour, 1.5 h after initial treatment) | Percent of Rats Cataleptic ([3]; then (+)-isomer 50 mg/kg IP after one hour, 3.0 h after initial treatment) | Percent of Rats Cataleptic ([3]; then (+)-isomer 50 mg/kg IP after one hour, 4.0 h after initial treatment)
